The source of these data is patent US20100216827A1 (Metabolex, Inc., priority 2008, published 2010).

Read-outs that look alike come from different tables or passages of the source.

This assay deals with T1, human GPR120 (Homo sapiens, UniProt Q5NUL3).
T1 construct: host or cells: HEK293 cells coexpressing Gqi5
T1 sequence (Q5NUL3 1-361): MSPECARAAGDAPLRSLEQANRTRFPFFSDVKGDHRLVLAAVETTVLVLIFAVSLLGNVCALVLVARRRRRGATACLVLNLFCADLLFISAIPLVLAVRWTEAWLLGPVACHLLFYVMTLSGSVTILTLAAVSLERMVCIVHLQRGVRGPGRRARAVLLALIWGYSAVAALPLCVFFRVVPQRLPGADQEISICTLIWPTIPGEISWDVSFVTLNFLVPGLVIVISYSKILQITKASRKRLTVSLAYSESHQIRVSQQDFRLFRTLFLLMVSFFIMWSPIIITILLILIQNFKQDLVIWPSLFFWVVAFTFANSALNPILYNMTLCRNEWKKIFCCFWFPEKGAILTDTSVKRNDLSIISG
The experiment in a line: Intracellular Ca2+ (FLIPR Calcium 4, Flexstation) assay in human GPR120 stable HEK293 cell line coexpressing Gqi5. The class given is cell-based. Particulars: for % Activity at 5 μM: 5 μM compound compared to the maximal activity of GW9508 at 6.7 μM (100%); for EC50: human GPR120 stably expressing cells, 8 concentrations 0.00001 to 20 μM. The protocol:
Human GPR120 stable cell line was purchased from Multispan Inc (26219 Eden Landing Road, Hayward, Calif. 94545). This GPR120 cell line was generated in HEK293 cells coexpressing Gqi5. In this cell line, the Flag epitope tag (DYKDDDDK) was fused to the amino terminus of human GPR120 protein.
The concentration of intracellular Ca^2+ was measured as described below. Human GPR120 cells were plated in 96 well plates (Poly-D-Lysine coated black/clear Plate, Greiner Bio-One) at 70,000 cells per well and cultured overnight in conditions of 37° C. and 5% CO2. A Ca^2+ assay dye stock solution was prepared by adding 10 mL of assay buffer (HBSS/20 mM HEPES, pH 7.4) to FLIPR Calcium 4 Assay Bulk Kit (Molecular Devices). The 10 mL of Ca^2+ assay dye solution was prepared by further diluting 0.5 mL of Ca^2+ assay dye stock solution with 10 mL of assay buffer. The medium of the cells was removed and immediately 100 μl of the Ca^2+ assay dye solution was dispensed into each well followed by incubation at 37° C. and 5% CO2 for 50 minutes to incorporate the Ca^2+ dye into the cells. The cell plate was then placed in the Flexstation (Molecular Devices) for 20 minutes at 37° C. Compounds were dissolved in 100% DMSO and diluted to desired concentrations with assay buffer and placed in Flexstation simultaneously with the cell plate for 20 minute incubation at 37° C. prior to reading. Fluorescence intensity was measured immediately following compound addition (25 μl/well) on the Flexstation at an excitation wavelength of 485 nm and an emission wavelength of 525 with 515 nm auto cutoff. The resulting increase in fluorescence intensities corresponds to increases in intracellular Ca^2+ levels.
Compounds were dissolved in 100% DMSO to a concentration of 20 mM to provide stock solutions. To determine activity against human GPR120, compounds were added with human GPR120 stably expressing cells (described above), at 8 desired concentrations ranging from 0.00001 to 20 μM, in 96 well plates and fluorescence intensities were measured for 90 seconds with 2-second intervals. An EC50 value (concentration of the GPR120 agonist where 50% of the agonist's maximal activity is observed) was calculated using the changes (Max-Min) of fluorescent intensity.
To determine percent activity for a tested compound, the fluorescence intensity value obtained at a particular concentration were compared to the maximal fluorescence intensity value obtained for reference compound GW9508 (4-[[(3-phenoxyphenyl)methyl]amino]benzene propanoic acid; British Journal of Pharmacology 2006 148, 619-628) that acts as a full agonist of the GPR120 receptor. The maximal activity of GW9508 is designated as 100% activity. Typically, the GW9508 activity reached a maximum at a concentration of approximately 6.7 μM. Activities of compounds that were tested according to this method are shown in Table 1 below and are expressed as % activity at 5 μM compound compared to the maximal activity of GW9508 at 6.7 μM.

Setting [1] is: read-out: EC50 between >1 μM and ≦10 μM.

Usually EC50 stands for the concentration needed to bring the measured effect to its halfway point. For `O=C(O)CCc1cc(F)c(OCc2snnc2-c2ccc(Cl)cc2)c(F)c1` [Example 62, 3-(4-((4-(4-chlorophenyl)-1,2,3-thiadiazol-5-yl)methoxy)-3,5-difluorophenyl)propanoic acid], the “% Activity at 5 μM” value is reported as 88%. Moreover, the EC50 (read-out: EC50 ≦ 1 μM) was at most 1000 nM.
In the same order, the values of `O=C(O)C1CC1c1cc(F)c(OCc2snnc2-c2ccccc2)c(F)c1` (stereo not drawn) [Example 63, 2-(3,5-difluoro-4-((4-phenyl-1,2,3-thiadiazol-5-yl)methoxy)phenyl)cyclopropane carboxylic acid] are 76% and at most 1000 nM.
Regarding `Cc1cc(COc2c(F)cc(C3CC3C(=O)O)cc2F)n(-c2ccccc2)n1` (stereo not drawn) [Example 64, 2-(3,5-difluoro-4-((3-methyl-1-phenyl-1H-pyrazol-5-yl)methoxy)phenyl)cyclopropane carboxylic acid], the “% Activity at 5 μM” value was determined as 71%. The EC50 (read-out: EC50 ≦ 1 μM) was at most 1000 nM.
For `O=C(O)CCc1cc(F)c(OCc2cc(C(F)(F)F)nn2-c2ccccc2)c(F)c1` [Example 65, 3-(3,5-difluoro-4-((1-phenyl-3-(trifluoromethyl)-1H-pyrazol-5-yl)methoxy)phenyl)propanoic acid], in that order: 86% and at most 1000 nM.
As for `C[C@@H](Oc1cc(F)c(OCc2snnc2-c2ccc(Cl)cc2)c(F)c1)C(=O)O` [Example 66, (R)-2-(4-((4-(4-chlorophenyl)-1,2,3-thiadiazol-5-yl)methoxy)-3,5-difluorophenoxy)propanoic acid], the “% Activity at 5 μM” value was 15%. The EC50 (read-out: EC50 > 10 μM) was above 10000 nM.
Take `O=C(O)CCC(=O)c1ccc(OCc2snnc2-c2ccc(Cl)cc2)cc1` [Example 67, 4-(4-((4-(4-chlorophenyl)-1,2,3-thiadiazol-5-yl)methoxy)phenyl)-4-oxobutanoic acid]: the “% Activity at 5 μM” value came out at 59%. For the same compound, the EC50 under setting [1] lay in the range of 1000 to 10000 nM.
In the same order, the values of `CO/N=C(/CCC(=O)O)c1ccc(OCc2snnc2-c2ccc(Cl)cc2)cc1` [Example 68, (Z)-4-(4-((4-(4-chlorophenyl)-1,2,3-thiadiazol-5-yl)methoxy)phenyl)-4-(methoxyimino)butanoic acid] are 54% and 1000 to 10000 nM.
In the same order, the values of `C/C(=C\C(=O)O)Cc1ccc(OCc2snnc2-c2ccc(Cl)cc2)cc1` [Example 69, (E)-4-(4-((4-(4-chlorophenyl)-1,2,3-thiadiazol-5-yl)methoxy)phenyl)-3-methylbut-2-enoic acid] are 87% and 1000 to 10000 nM.
On to `C/C(=C\C(=O)O)CCc1ccc(OCc2snnc2-c2ccc(Cl)cc2)cc1` [Example 70, (E)-5-(4-((4-(4-chlorophenyl)-1,2,3-thiadiazol-5-yl)methoxy)phenyl)-3-methylpent-2-enoic acid], for which the “% Activity at 5 μM” value was 62%. In addition, under setting [1], the EC50 was 1000 to 10000 nM.
For `Cc1cc(COc2ccc(CCC(C)CC(=O)O)cc2)n(-c2ccc(Cl)cc2)n1` (stereo not drawn) [Example 71, 5-(4-((1-(4-chlorophenyl)-3-methyl-1H-pyrazol-5-yl)methoxy)phenyl)-3-methyl pentanoic acid], the “% Activity at 5 μM” value is recorded as 100%. Besides, the EC50 (read-out: EC50 ≦ 1 μM) was at most 1000 nM.
In the same order, the values of `Cc1cc(COc2ccc(CC(C)CC(=O)O)cc2)n(-c2ccc(Cl)cc2)n1` (stereo not drawn) [Example 72, 4-(4-((1-(4-chlorophenyl)-3-methyl-1H-pyrazol-5-yl)methoxy)phenyl)-3-methylbutanoic acid] are 100% and at most 1000 nM.
As to `O=C(O)CCc1cc(F)c(OCc2snnc2-c2ccc(F)c(F)c2)c(F)c1` [Example 73, 3-(4-((4-(3,4-difluorophenyl)-1,2,3-thiadiazol-5-yl)methoxy)-3,5-difluorophenyl)propanoic acid], the “% Activity at 5 μM” value worked out at 72%. Also, the EC50 (read-out: EC50 ≦ 1 μM) was at most 1000 nM.
